In publication PMC6894422 (Journal of the American Chemical Society, 2019):

Experiments:
A549 NSCLC cells = assay: colony formation in soft agar; assay type: cell-based; settings: A549, 300 nM, 14 days
[1] = system: MERTK phosphorylation in 697 ALL cells; assay: pMERTK assay
NOMO-1 AML cells [2] = assay: colony formation in soft agar; assay type: cell-based, human; settings: NOMO-1, 300 nM
OCI-AML5 AML cells = assay: colony formation in soft agar; assay type: cell-based
NOMO-1 AML cells [3] = assay: cell death by PoPro-1-iodide/propidium iodide flow cytometry; settings: NOMO-1, 300 nM, 72 hours
[4] = system: AXL phosphorylation in A549 NSCLC cells; assay: pAXL assay
[5] = pharmacokinetic study in mice; assay type: in vivo
[6] = system: kinome (222 kinases quantified) in NOMO-1 human AML cells; assay: MIB-MS kinome profiling; assay type: cell-based; settings: NOMO-1 cells, 100 nM, one hour
COLO-699 NSCLC cells = assay: colony formation in soft agar; assay type: cell-based; settings: 14 days
Kasumi-1 AML cells = assay: cell death by PoPro-1-iodide/propidium iodide flow cytometry; assay type: cell-based; settings: Kasumi-1, 300 nM, 72 hours

With `CC(C)C(=O)Nc1ccnc(C#Cc2ccc(Nc3ncc(-c4ccccn4)c(NC4CCC(O)CC4)n3)cc2)c1` (centres unmarked) [Compound 10] the “reduction in colony number” value (A549 NSCLC cells) was 60–75%, the “inhibition of pMERTK at higher concentrations” value ([1]; higher concentrations of 10) was “Near complete inhibition” and the IC50 ([1]; read-out: IC50 (MERTK phosphorylation), 697 ALL cells, 1 hour, 95% confidence interval = 16–52 nM) was 28 nM. The “reduction in colony number” value (NOMO-1 AML cells [2]) was 60–75%, the “reduction in colony number” value (OCI-AML5 AML cells; OCI-AML5, 50 nM) was 70% and the colony formation (OCI-AML5 AML cells; OCI-AML5, 300 nM) was “complete abrogation of colony formation”. For the same compound, the “tumor cell death (% of cells)” value (NOMO-1 AML cells [3]) was 41%, the “inhibition of pAXL at higher concentrations” value ([4]; higher concentrations of 10) was “Near complete inhibition” and the IC50 ([4]; read-out: IC50 (AXL phosphorylation), A549 NSCLC cells, 1 hour, 95% confidence interval = 18–57 nM) was 32 nM. The oral bioavailability ([5]; p.o.) was “weak oral bioavailability”, the Cmax ([5]; plasma, via i.p. route) was 435 ng/mL and the T1/2 ([5]; plasma, via i.p. route) was 4.97 h. The “number of kinases with lower enrichment on the beads compared to DMSO control” value ([6]; 222 kinases quantified) was 27 kinases, the “number of kinases significantly decreased” value ([6]; p < 0.05 and log2 ratio 10/control ≥ 2) was 8 kinases and the “reduction in colony number” value (COLO-699 NSCLC cells; COLO-699, 50 nM) was 70%. The colony formation (COLO-699 NSCLC cells; COLO-699, 300 nM) was “complete abrogation of colony formation” and the “tumor cell death (% of cells)” value (Kasumi-1 AML cells) was 67%.
